Consider 40 compounds from ChEMBL document CHEMBL1201862, “PubChem BioAssay data set” (2004).

Test [1] concerns the target T1, Heat shock factor protein 1 (Mus musculus, UniProt P38532).
T1 sequence (P38532 whole entry): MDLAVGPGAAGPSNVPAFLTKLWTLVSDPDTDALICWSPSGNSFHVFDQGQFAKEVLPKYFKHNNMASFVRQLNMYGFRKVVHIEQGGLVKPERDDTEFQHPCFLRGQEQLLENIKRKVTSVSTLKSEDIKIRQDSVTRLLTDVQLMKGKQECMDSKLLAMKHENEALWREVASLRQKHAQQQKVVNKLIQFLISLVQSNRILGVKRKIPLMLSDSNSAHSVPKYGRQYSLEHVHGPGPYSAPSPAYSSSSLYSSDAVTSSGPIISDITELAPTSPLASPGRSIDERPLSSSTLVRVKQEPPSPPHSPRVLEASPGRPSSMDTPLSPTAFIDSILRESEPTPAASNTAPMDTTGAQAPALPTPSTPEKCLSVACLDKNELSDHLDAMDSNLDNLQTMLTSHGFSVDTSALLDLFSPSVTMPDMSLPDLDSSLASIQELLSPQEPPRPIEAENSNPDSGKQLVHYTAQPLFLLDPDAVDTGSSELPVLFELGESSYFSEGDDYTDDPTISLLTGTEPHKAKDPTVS
Description: enhancement of HSF1-driven luciferase signal – cell-based, NIH3T3, luminescence, dose retest, confirmation (AID 435004).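 Note: stress induced by proteasome inhibitor MG132 added 30 min after compound; luciferase reporter driven by HSF1 response element in NIH3T3 cells; actives raise luminescence as potentiators of the MG132 stress response.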 It counts as functional.

The target in test [2] is T2, Corticotropin-releasing factor receptor 2/Corticotropin-releasing factor-binding protein (Homo sapiens, UniProt P24387+Q13324).
T2 sequence (Q13324 whole entry): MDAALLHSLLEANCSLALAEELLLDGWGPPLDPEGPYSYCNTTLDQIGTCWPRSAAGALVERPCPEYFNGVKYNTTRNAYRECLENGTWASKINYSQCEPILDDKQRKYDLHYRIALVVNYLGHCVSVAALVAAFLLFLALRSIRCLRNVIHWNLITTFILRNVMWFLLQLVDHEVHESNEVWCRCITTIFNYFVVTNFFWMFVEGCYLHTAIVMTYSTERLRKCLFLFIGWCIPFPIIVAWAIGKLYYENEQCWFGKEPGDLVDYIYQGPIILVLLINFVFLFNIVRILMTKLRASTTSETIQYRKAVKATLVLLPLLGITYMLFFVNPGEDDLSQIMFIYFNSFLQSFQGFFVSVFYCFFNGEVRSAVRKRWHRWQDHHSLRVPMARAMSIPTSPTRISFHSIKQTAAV
T2 sequence (P24387 whole entry): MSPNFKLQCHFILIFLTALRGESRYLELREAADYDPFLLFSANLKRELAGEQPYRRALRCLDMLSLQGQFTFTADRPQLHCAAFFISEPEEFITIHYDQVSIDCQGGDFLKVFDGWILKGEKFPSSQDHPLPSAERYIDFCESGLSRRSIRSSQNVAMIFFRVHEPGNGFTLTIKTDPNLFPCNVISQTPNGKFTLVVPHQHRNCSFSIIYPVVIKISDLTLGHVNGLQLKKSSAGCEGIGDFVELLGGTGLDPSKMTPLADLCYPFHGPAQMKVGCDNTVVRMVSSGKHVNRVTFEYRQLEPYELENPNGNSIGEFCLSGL
Description: activators of CRF receptor 2 with binding protein – uHTS hits, confirmation (AID 602473). It counts as functional. The conditions noted are these: read-out: EC50_Mean.

Test [3] has as its target T2, Corticotropin-releasing factor receptor 2/Corticotropin-releasing factor-binding protein. Description: Dose Response confirmation of uHTS hits for small molecule antagonists of the CRF-binding protein and CRF-R2 receptor complex. The conditions noted are these: read-out: IC50_Mean. It counts as functional.
In test [4] the target is Cytochrome P450 2D6 (Homo sapiens, UniProt P10635).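 Note: CYP2D6 member of a cytochrome P450 panel assay.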
Test [5] deals with T3, Cytochrome P450 1A2 (Homo sapiens, UniProt P05177).
T3 sequence (P05177 whole entry): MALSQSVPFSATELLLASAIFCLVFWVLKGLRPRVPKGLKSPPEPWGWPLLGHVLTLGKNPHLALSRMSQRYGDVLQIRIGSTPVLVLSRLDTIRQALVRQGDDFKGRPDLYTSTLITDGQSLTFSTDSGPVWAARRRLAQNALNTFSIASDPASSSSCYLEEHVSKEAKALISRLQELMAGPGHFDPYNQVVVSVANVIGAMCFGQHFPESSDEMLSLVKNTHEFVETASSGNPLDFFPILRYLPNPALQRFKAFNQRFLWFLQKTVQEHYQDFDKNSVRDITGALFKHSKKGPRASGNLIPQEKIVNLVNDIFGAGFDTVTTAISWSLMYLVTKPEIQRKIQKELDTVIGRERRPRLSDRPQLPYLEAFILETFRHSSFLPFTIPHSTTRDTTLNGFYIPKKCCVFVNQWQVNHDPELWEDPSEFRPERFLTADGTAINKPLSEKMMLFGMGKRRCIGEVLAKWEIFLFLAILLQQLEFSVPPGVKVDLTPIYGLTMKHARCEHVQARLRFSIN

For test [6], the target named is T4, Ubiquitin-conjugating enzyme E2 N (Homo sapiens, UniProt P61088).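 Note: Dose-response confirmation in a TR-FRET assay detecting UBC13-driven polyubiquitin chain formation, inhibition measured.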
T4 sequence (P61088 whole entry): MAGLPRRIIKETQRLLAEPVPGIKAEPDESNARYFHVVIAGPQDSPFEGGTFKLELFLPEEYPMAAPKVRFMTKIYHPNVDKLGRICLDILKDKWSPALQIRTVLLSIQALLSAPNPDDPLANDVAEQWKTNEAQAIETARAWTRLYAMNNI
The test is classed as functional.

Test [7] in a line: loss of viability in HepG2 cells – cell-based, CellTiter-Glo, cherry-picked, cytotoxicity control for Shn3 inhibitor project, dose response (AID 624134). The test is classed as functional. In general terms: In ATP-based viability assays light output follows the ATP content of the culture.
A short description of test [8]: non-specific 3'UTR reporter inhibition in Clone20-Shn3RL – cell-based, Renilla luciferase, cherry-picked, counter-screen for Shn3 inhibitor project, dose response (AID 624133). It counts as functional.
Test [9] is described as follows: reduction of Shn3 3'UTR-driven luciferase in osteoblasts – cell-based, Clone20 osteoblasts, firefly luciferase, cherry-picked, dose response (AID 624132).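 Note: firefly luciferase luminescence from reporter carrying the Shn3 3'UTR in osteoblasts.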 The test is classed as functional.
Test [10] is described as follows: Trypanosoma cruzi growth suppression in host cells – NIH3T3 host cells, beta-gal luminescence, confirmation (AID 2044).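 Note: intracellular parasites grown in NIH/3T3 mouse fibroblasts as host cells; luminescent beta-galactosidase reporter signal from transgenic T. cruzi replicating inside host cells; inhibitors lower the luminescence signal.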 It counts as functional, cell-based.
A short description of test [11]: NIH3T3 cell viability loss – ATP luminescence, mouse fibroblasts, counter-screen, dose response (AID 2010).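 Note: cells exposed to compound for about 90 hours before reading.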 It counts as functional, cell-based. A general note: Counterscreens check selectivity or assay interference.

Several values for one entry are separate records, joined by “and”; a condition that tells them apart may be missing. Identical values can stand only once. Activity calls are given as the source filed them.

Cytochrome P450 2D6, sequence (P10635 whole entry): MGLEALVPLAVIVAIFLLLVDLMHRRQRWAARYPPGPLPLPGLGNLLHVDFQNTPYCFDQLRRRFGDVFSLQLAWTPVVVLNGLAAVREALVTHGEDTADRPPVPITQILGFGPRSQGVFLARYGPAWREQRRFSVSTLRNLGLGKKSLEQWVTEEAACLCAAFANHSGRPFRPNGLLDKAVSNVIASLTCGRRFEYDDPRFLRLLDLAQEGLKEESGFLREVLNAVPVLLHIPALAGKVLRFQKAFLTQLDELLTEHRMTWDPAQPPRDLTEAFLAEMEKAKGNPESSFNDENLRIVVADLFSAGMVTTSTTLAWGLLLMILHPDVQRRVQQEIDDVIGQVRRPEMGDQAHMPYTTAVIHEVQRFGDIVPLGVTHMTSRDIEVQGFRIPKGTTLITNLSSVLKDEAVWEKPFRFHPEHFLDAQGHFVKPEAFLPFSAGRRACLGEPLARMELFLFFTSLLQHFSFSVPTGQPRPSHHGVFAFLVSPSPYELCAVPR

Turning to `CCn1c(=O)n(CC)c2cc(S(=O)(=O)Nc3ccccc3C)c(C)cc21`, the EC50 in test [1] is > 260 µM (inactive).
For `Cc1ccccc1Nc1nc(N)nc(COC(=O)c2cccc(S(=O)(=O)N(C)c3ccccc3)c2)n1`, the EC50 in [2] was > 53 µM (inactive). Also, the IC50 in test [3] was > 47.1 µM (inactive).
In the case of `CN(C)c1ccc(-c2cncnc2Nc2ccccc2)cc1`, the AC50 in test [4] was 20 µM (inconclusive).
In the case of `O=C(N/N=C1\CC(c2ccccc2)Oc2ccccc21)c1ccc(O)cc1` (configuration not stated), in test [1], the EC50 is > 260 µM (inactive).
With `O=[N+]([O-])c1ccc(S(=O)(=O)Cc2ccccc2)c([N+](=O)[O-])c1`, the half-maximal activity concentration (AC50) is 2.51 µM (inconclusive) in test [4] and 5.01 µM (inconclusive) in test [5].
Take `Cc1ccc(S(=O)(=O)c2c(N)n(-c3ccccc3)c3nc4ccccc4nc23)cc1`: the EC50 in test [1] was 28.6 µM (active).
As to `CCN(CC)C(=O)CSc1ncnc2c1nnn2-c1ccc(OC)cc1`, the EC50 in [2] was > 53 µM (inactive). Further, the IC50 in test [3] is > 47.1 µM (inactive).
`Cc1nn(C)cc1/C=N\NC(=O)c1ccc2c(c1)c(C)c(C)n2Cc1ccccc1`: in test [1], the EC50 is 67.7 µM (active).
Still for that read-out and setting: with `CCCCn1c(C)c(C(=O)OCC)c2c(CN3CCOCC3)c(O)ccc21` the figure was > 260 µM (inactive).
As for `CN(NC(=O)Nc1ccccc1)c1cnn(C)c(=O)c1Cl`, the EC50 in [2] was > 53 µM (inactive). For the same compound, in test [3], the IC50 was > 47.1 µM (inactive).
For the compound `COc1cccc(CN2CC(C(=O)NCc3ccc(Cl)s3)CCC2=O)c1` (configuration not stated), the EC50 in test [2] was > 53 µM (inactive). Also, in test [3], the IC50 was > 47.1 µM (inactive).
On to `O=C(C[C@H]1C[C@@H]2c3cc(NS(=O)(=O)c4ccccc4)ccc3O[C@@H]2[C@H](CO)O1)N1CCOCC1`, for which, in [2], the EC50 is > 53 µM (inactive). For the same compound, in test [3], the IC50 is > 47.1 µM (inactive).
For the compound `CCOC(=O)CSc1cc(-c2ccccc2)nc2ncnn12`, in test [1], the EC50 was 22.8 µM (active).
On to `CCN1CCN(c2cc(C)c3cc(NC(=S)N4CCN(c5ccc(F)cc5)CC4)ccc3n2)CC1`, for which the IC50 in test [6] is > 20 µM (inactive).
As for `CCC(=O)NC(C)c1cc(Cl)c2cccnc2c1O` (configuration not stated), the AC50 was 9.85 µM (active) in test [7], 1.62 µM (active) in test [8] and 5.19 µM (active) in [9].
Regarding `Cc1ccc(NC(=O)c2oc3ccccc3c2COC(C)C)cc1S(=O)(=O)N1CCOCC1`, the AC50 in [7] was > 70 µM (inactive); in test [9] it was 14.4 µM (active).
For `CCN(CC)Cc1c(C)nc2ccc(NC(C)=O)cc2c1O`, in test [2], the EC50 was > 53 µM (inactive). The IC50 in [3] was > 47.1 µM (inactive).
`COc1ccc(CNc2ncnc3ccc(-c4ccc(C(=O)N(C)C)cc4)cc23)c(OC)c1`: the values for the AC50 in test [4] and in test [5] were 20 µM (inconclusive) and 39.8 µM (inconclusive), respectively.
As for `COc1cc(N=C(S)NC(C)(C)C)c(OC)cc1Cl`, in test [1], the EC50 is > 260 µM (inactive).
In the case of `O=C(c1cc2nc(-c3ccc(F)cc3)cc(C(F)(F)F)n2n1)N1CCOCC1`, the EC50 in [2] was > 53 µM (inactive). Besides, the IC50 in [3] is > 47.1 µM (inactive).
On to `O=S(=O)(c1cccc2nsnc12)N1CCc2ccccc2C1`, for which the EC50 in test [2] was > 53 µM (inactive). Also, in test [3], the IC50 is > 47.1 µM (inactive).
Take `Cc1ccc(NC(=O)c2sc(N)nc2-c2ccc([N+](=O)[O-])cc2)c(C)c1`: the EC50 in [1] was > 260 µM (inactive).
Still for that read-out and setting: the same measure for `Cc1ccccc1Cn1c(-c2cncs2)nc2ccccc21`: > 260 µM (inactive).
For `Cc1cccc(N(C(=O)c2snc(C(N)=O)c2N)C(C(=O)NCC2CCCO2)c2c[nH]c3ccccc23)c1` (configuration not stated), in [6], the IC50 is > 20 µM (inactive).
With `Cc1ccc2c(c1)c(C)c(C)n2CC(O)Cn1nc(C)c(Br)c1C` (configuration not stated), the EC50 in [1] is > 260 µM (inactive).
As to `FC(F)(F)c1ccccc1-c1cncnc1Nc1ccccc1`, the AC50 in test [4] is 39.8 µM (inconclusive); in [5], 25.1 µM (inconclusive).
In the case of `CCOC(=O)C1=NN(c2ccccc2)C2=NC(C)=C(C(=O)OC)C(c3cccs3)N12` (configuration not stated), in test [2], the EC50 is > 53 µM (inactive). Besides, the IC50 in test [3] is > 47.1 µM (inactive).
As to `CC(=O)c1cc(C#N)c(Oc2ccc(Cl)cc2Cl)nc1C`, the EC50 in test [2] was > 53 µM (inactive). In addition, the IC50 in test [3] was > 47.1 µM (inactive).
With `Cc1ccccc1OCC(O)CN1CCN(CCN2C(=O)c3cccc4cccc(c34)C2=O)CC1` (configuration not stated), the IC50 in test [6] is > 20 µM (inactive). Also, the EC50 in [10] was 0.851 µM (active); in test [11], > 60 µM (inconclusive).
Regarding `COc1ccc(CN2CCC(CO)(CCOc3ccccc3)CC2)cc1C`, in test [2], the EC50 is > 53 µM (inactive). In test [3], the IC50 was > 47.1 µM (inactive).
On to `O=C1NCC2(CCN(CCc3ccccc3)CC2)O1` [FENSPIRIDE], for which the AC50 in [4] is 12.6 µM (inconclusive) and 39.8 µM (inconclusive).
Regarding `CCC(=O)Nc1c(S(=O)(=O)c2ccccc2)c2nc3ccccc3nc2n1C(C)c1ccccc1` (configuration not stated), in test [1], the EC50 is > 260 µM (inactive).
As to `COc1cc2c(cc1O)C[C@@H]1c3c(cc(O)c(OC)c3-2)CCN1C`, in test [4], the concentration at half-maximal activity (AC50) is 3.16 µM (inconclusive).
With `O=S(=O)(c1ccccc1C(F)(F)F)N1CCN(c2ncnc3sccc23)CC1`, the figures for the concentration at half-maximal activity (AC50) in test [7], in test [8] and in test [9] were 8.89 µM (active), 9.4 µM (active) and 3.44 µM (active), respectively.
Consider `COc1ccc(NC(=O)COc2ccccc2Cc2ccccc2)cc1S(N)(=O)=O`, for which, in [1], the EC50 was > 260 µM (inactive).
On the same count and under the same terms, the same measure for `COc1cc(NC(=O)c2cc([N+](=O)[O-])ccc2Br)ccc1NC(=O)c1ccco1`: 9.95 µM (active).
Regarding `COc1cccc(NS(=O)(=O)c2ccc3ncc(C(=O)NCCN4CCOCC4)c(O)c3c2)c1`, the AC50 in test [4] is 28.2 µM (inconclusive); in [5], 12.6 µM (inconclusive).
Regarding `O=C(COC(=O)Cn1cnc2ccccc2c1=O)NCc1ccccc1Cl`, the IC50 in [6] was > 20 µM (inactive).
As to `C#CCOCCOCCOCCNc1nc(N2CCN(C(=O)C([C@@H](C)O)n3cc([C@@H](N)CCCCN)nn3)CC2)nc(N2CCN(C(=O)C([C@@H](C)O)n3cc([C@@H](N)CCCCN)nn3)CC2)n1` (some centres not stated), the IC50 in test [6] is > 20 µM (inactive).
Regarding `O=C(CC12CCC(CC1)C2)NCc1ccc2c(c1)OCO2`, the EC50 in test [1] is > 260 µM (inactive).

One may read the AC50 as the concentration at which the activity in the assay is half-maximal.
